# Data as given in ChEMBL document CHEMBL3244369, “Synthesis and inhibition analysis of 2(4)-imino-4(2)-amino-2,4-dideoxyriboflavin, a dual antagonist of riboflavin and folinic acid” (J Med Chem, 1977).
# Active and inactive are the calls of the source. The rule behind the calls is not given here.
# Assays:
# Format in all cases: functional
# [1] = system: Lactobacillus leichmannii; assay: Inhibition index, ratio of antifolate activity against Lactobacillus leichmannii in presence of 250 ug/ml of riboflavin to antifolate activity against Lactobacillus leichmannii absence of riboflavin
# [2] = Antifolate activity against Lactobacillus leichmannii at 20 ug/ml
# [3] = Antifolate activity against Lactobacillus leichmannii at 7 ug/ml
# [4] = Antifolate activity against Lactobacillus leichmannii at 150 ug/ml in presence of 0.02 ug/ml of folinic acid and 250 ug/ml riboflavin
# [5] = system: Lactobacillus leichmannii; assay: Inhibition index, ratio of antifolate activity against Lactobacillus leichmannii in presence of 0.02 ug/ml of folinic acid to antifolate activity against Lactobacillus leichmannii absence of folinic acid
# [6] = Antifolate activity against Lactobacillus leichmannii at 20 to 60 ug/ml in presence of 0.02 ug/ml of folinic acid
smiles,measurement,setting,value
Cc1cc2nc3c(N)nc(=N)nc-3n(C[C@H](O)[C@H](O)[C@H](O)CO)c2cc1C,Ratio,[1],1.5
same,growth inhibition (GI),[2],Active
same,growth inhibition (GI),[3],Active
same,growth inhibition (GI),[4],inactive
same,Ratio,[5],6000
same,growth inhibition (GI),[6],inactive
